These results are taken from ChEMBL document CHEMBL5634123, “Design and synthesis of 1H-benzo[d]imidazole selective HDAC6 inhibitors with potential therapy for multiple myeloma” (Eur J Med Chem, 2023).

Data set [1] concerns RPMI-8226. The data set is described as follows: Induction of cell cycle arrest at G1 phase in human RPMI-8226 cells at 2.5 uM incubated for 24 hrs by PI staining based flow cytometry (reference value: 19.2 %). Format: functional.
Data set [2] relates to RPMI-8226. The data set is described as follows: Induction of cell cycle arrest at S phase in human RPMI-8226 cells at 2.5 uM incubated for 24 hrs by PI staining based flow cytometry (reference value: 58.5 %). Format: functional. On the technique in general: In flow cytometry, cells or beads pass a laser one at a time.
For data set [3], the system named is RPMI-8226. The data set is described as follows: Induction of cell cycle arrest at G2 phase in human RPMI-8226 cells at 2.5 uM incubated for 24 hrs by PI staining based flow cytometry (reference value: 18.3 %). In kind it is functional.
Data set [4] concerns RPMI-8226. The data set is described as follows: Induction of apoptosis in human RPMI-8226 cells assessed as viable cells at 2.5 uM incubated for 24 hrs by Annexin V-FITC/PI staining based flow cytometry (reference value: 90.98 %). As to conditions: read-out: Activity. In kind it is functional.
In data set [5] the test system is RPMI-8226. The data set is described as follows: Induction of apoptosis in human RPMI-8226 cells assessed as early apoptotic cells at 2.5 uM incubated for 24 hrs by Annexin V-FITC/PI staining based flow cytometry (reference value: 5.34 %). Format: functional.
The subject of data set [6] is RPMI-8226. The data set is described as follows: Induction of apoptosis in human RPMI-8226 cells assessed as late apoptotic cells at 2.5 uM incubated for 24 hrs by Annexin V-FITC/PI staining based flow cytometry (reference value: 2.78 %). Format: functional.
In data set [7] the test system is RPMI-8226. The data set is described as follows: Induction of apoptosis in human RPMI-8226 cells assessed as necrotic cells at 2.5 uM incubated for 24 hrs by Annexin V-FITC/PI staining based flow cytometry (reference value: 0.90 %). In kind it is functional.
The nature of data set [8]: Clearance in mouse at 1 mg/kg, iv. In kind it is ADME, organism-based. As to conditions: in vivo.
Data set [9] is described as follows: Volume of distribution at steady state in mouse at 1 mg/kg, iv. Format: ADME, organism-based. As to conditions: in vivo, read-out: Vdss.
Data set [10] is described as follows: AUC (0 to t) in mouse at 1 mg/kg, iv. In kind it is ADME, organism-based. As to conditions: in vivo.
Data set [11] in a line: Half life in mouse at 1 mg/kg, iv. In kind it is ADME, organism-based. As to conditions: in vivo.
Data set [12] can be described thus: Cmax in mouse at 10 mg/kg, po. As to conditions: in vivo. In kind it is ADME, organism-based.
Data set [13] in a line: Tmax in mouse at 10 mg/kg, po. As to conditions: in vivo. Format: ADME, organism-based.
The nature of data set [14]: Oral bioavailability in mouse at 10 mg/kg. Format: ADME, organism-based. As to conditions: in vivo.
The subject of data set [15] is RPMI-8226. The data set is described as follows: Antitumor activity against human RPMI-8226 cells xenografted in Balb/c nude mouse assessed as ratio of tumor to control at 40 mg/kg, po qd for 21 days administered consecutively relative to control. In kind it is functional. As to conditions: time 21 day.
Data set [16] can be described thus: Toxicity in Balb/c nude mouse xenografted with human RPMI-8226 cells assessed as body weight loss at 40 mg/kg, po qd for 21 days administered consecutively. As to conditions: in vivo, 504 h, time 21 day. Format: organism-based.

On to `O=C(CCCCCCNC(=O)c1cnc(N(c2ccccc2)c2ccccc2)nc1)NO` [RICOLINOSTAT], for which the Activity with RPMI-8226 [1] is recorded as 28.1%; with RPMI-8226 [2], 40.8%; in the data set on RPMI-8226 [3], 24.5%; with RPMI-8226 [5] it was 19.84%; in the data set with RPMI-8226 [6], 4.33%; in the data set on RPMI-8226 [7] it was 0.56%. Also, in data set [16], the Activity entry was “Non-Toxic”. The viability at 2.5 µM in the data set on RPMI-8226 [4] worked out at 75.3%. Also, the clearance (commonly a measure of how efficiently the substance is removed, as volume per time) in data set [8] stood at 29.4 mL/min/kg. Moreover, in data set [9], the Vd came out at 0.525 L/kg. The AUC(0-t) (commonly exposure summed from dosing to a finite time, without extrapolation to infinity) in data set [10] was found to be 566 ng·h/mL. The half-life (commonly the time needed for the level to fall by half in the phase considered) in [11] is 22.3 min. Besides, the Cmax (usually the highest concentration seen after dosing) in data set [12] turned out to be 333 ng/mL. Also, in data set [13], the Tmax (usually the time at which the peak concentration occurs) was 15 min. In [14], the bioavailability (in general, dose-corrected exposure relative to a reference, in per cent) came to 6%. Also, the T/C – broadly, the result in the treated group divided by that in the control group, in per cent – with RPMI-8226 [15] is 39.9%.
